Read-outs that look alike come from different tables or passages of the source.
Tests used:
[1] = tested on: NCI-H292 lung cancer cells; experiment: FDA drug screening, complete media vs cholesterol-free media without statin (TABLE 1); assay type: cell-based, human
[2] = tested on: NCI-H292 lung cancer cells; experiment: FDA drug screening, complete media vs cholesterol-free media with simvastatin (TABLE 2); assay type: cell-based, human
[3] = complete vs cholesterol-free media, greater than 0 enhanced anti-cancer activity, about 0 neutral, below 0 antagonists
[4] = NCI-H292 cells, FDA drug library screen, cholesterol-free media with simvastatin 0.04 μM
[5] = NCI-H292 cells, FDA drug library screen, complete media
[6] = complete media minus cholesterol-free media + simvastatin, >0 enhanced anti-cancer activity, about 0 neutral, <0 antagonist
[7] = NCI-H292 cells, cholesterol-free media without statin
[8] = complete media minus cholesterol-free media + simvastatin, […]
[9] = Complete minus Cholesterol-free, greater than 0 enhanced anti-cancer activity, about 0 neutral, below 0 antagonists
[10] = NCI-H292 cells in cholesterol-free media without statin
[11] = NCI-H292 cells in complete media
[12] = Complete minus Cholesterol-free, greater than 0 enhanced anti-cancer activity, about 0 neutral, below 0 antagonist
[13] = NCI-H292 cells, FDA drug library screen, cholesterol-free media without statin
[14] = NCI-H292 cells, cholesterol-free media with simvastatin 0.04 μM, cell growth value in FDA drug screen
[15] = NCI-H292 cells, complete media, cell growth value in FDA drug screen
[16] = Complete minus Cholesterol-free, >0 enhanced anti-cancer activity, about 0 neutral, <0 antagonist
[17] = NCI-H292 cells, cholesterol-free media without statin, FDA drug library screen
[18] = NCI-H292 cells, complete media, FDA drug library screen
[19] = complete vs cholesterol-free media, >0 enhanced anti-cancer activity, about 0 neutral, <0 antagonist
[20] = complete media vs cholesterol-free media + simvastatin (0.04 μM), >0 enhanced anti-cancer activity, about 0 neutral, <0 antagonist
[21] = NCI-H292 cells, FDA library drug in cholesterol-free media with simvastatin 0.04 μM
[22] = NCI-H292 cells, FDA library drug in complete media
[23] = NCI-H292 cells, cholesterol-free media with simvastatin 0.04 μM, FDA drug library screen (TABLE 2)
[24] = NCI-H292 cells, complete media, FDA drug library screen (TABLE 2)
[25] = complete media minus cholesterol-free media + simvastatin (0.04 μM), >0 enhanced anti-cancer activity, about 0 neutral, <0 antagonist
[26] = Complete minus Cholesterol-free, […]
[27] = NCI-H292 cells, drug in cholesterol-free media with simvastatin 0.04 μM
[28] = NCI-H292 cells, drug in complete media

Compound: CCOc1ccc(Cc2cc([C@@H]3O[C@H](CO)[C@@H](O)[C@H](O)[C@H]3O)ccc2Cl)cc1
- Complete ([1]; NCI-H292 cells, complete media): 0.6259
- Difference [1, 3]: −0.32
- Cholesterol-free media + simvastatin (0.04 μM) [2, 4]: 0.9312
- Complete Media [2, 5]: 1.177
- Difference [2, 6]: 0.25

Compound: Clc1ccc2c(N3CCN(CCCN4CCN(c5ccnc6cc(Cl)ccc56)CC4)CC3)ccnc2c1
- Cholesterol-free [1, 7]: 1.226
- Complete ([1]; NCI-H292 cells, complete media): 0.8255
- Difference ([1]; complete vs cholesterol-free media, […]): −0.40
- Cholesterol-free media + simvastatin (0.04 μM) [2, 4]: 0.9008
- Complete Media [2, 5]: 1.047
- Difference [2, 8]: 0.15

Compound: CN[C@@H]1[C@H](O)[C@H](NC)[C@H]2O[C@@]3(O)C(=O)C[C@@H](C)O[C@H]3O[C@@H]2[C@H]1O.Cl.Cl.O.O.O.O.O
- Difference [1, 9]: −0.93
- Cholesterol-free [1, 10]: 1.889
- Complete [1, 11]: 0.9594
- Cholesterol-free media + simvastatin (0.04 μM) [2, 4]: 0.773
- Complete Media [2, 5]: 0.9222
- Difference [2, 6]: 0.15

Compound: Cl.Cl.OCCN1CCN(CCC=C2c3ccccc3Sc3ccc(C(F)(F)F)cc32)CC1 (mixture of isomers) [Flupentixol dihydrochloride]
- Cholesterol-free [1, 7]: 1.101
- Complete ([1]; NCI-H292 cells, complete media): 0.7804
- Difference [1, 3]: −0.32
- Cholesterol-free media + simvastatin (0.04 μM) [2, 4]: 0.5255
- Complete Media [2, 5]: 1.084
- Difference [2, 6]: 0.56

Compound: OC[C@H]1O[C@@H](O[C@@H]2[C@@H](CO)OC(O)(CO)[C@H]2O)[C@H](O)[C@@H](O)[C@H]1O (mixture of isomers) [Lactulose]
- Difference [1, 12]: −0.16
- Cholesterol-free [1, 13]: 1.109
- Complete [1, 5]: 0.9456
- Cholesterol-free media + simvastatin (0.04 μM) [2, 14]: 0.7227
- Complete Media [2, 15]: 0.8015
- Difference [2, 6]: 0.08

Compound: CC(C)NCC(O)COc1ccc(COCCOC(C)C)cc1.CC(C)NCC(O)COc1ccc(COCCOC(C)C)cc1.O=C(O)/C=C/C(=O)O (racemic) [(±)-Bisoprolol (hemifumarate)]
- Difference [1, 16]: −0.20
- Cholesterol-free [1, 7]: 1.077
- Complete ([1]; NCI-H292 cells, complete media): 0.8813
- Cholesterol-free media + simvastatin (0.04 μM) [2, 4]: 0.9429
- Difference [2, 6]: 0.21

Compound: NC(=O)C(c1ccccc1)(c1ccccc1)[C@@H]1CCN(CCc2ccc3c(c2)CCO3)C1 (racemic) [(±)-Darifenacin]
- Cholesterol-free [1, 17]: 1.009
- Complete [1, 18]: 1.18
- Difference [1, 19]: 0.17
- Cholesterol-free media + simvastatin (0.04 μM) [2, 4]: 0.9772
- Complete Media [2, 5]: 0.8726
- Difference [2, 20]: −0.10

Compound: O=C(c1ccc(F)c(F)c1Nc1ccc(I)cc1F)N1CC(O)([C@@H]2CCCCN2)C1 (racemic) [Cobimetinib (racemate)]
- Difference [1, 16]: −0.02
- Cholesterol-free [1, 17]: 0.2982
- Complete [1, 18]: 0.2751
- Cholesterol-free media + simvastatin (0.04 μM) [2, 4]: 0.2662
- Complete Media [2, 5]: 0.405
- Difference [2, 6]: 0.14

Compound: N=C(N)NCCCC(N)C(=O)O (racemic) [DL-Arginine]
- Cholesterol-free [1]: 1.525
- Complete [1]: 1.476
- Difference [1]: −0.05
- Cholesterol-free media + simvastatin (0.04 μM) [2]: 0.9889
- Complete Media [2]: 0.9776
- Difference [2]: −0.01

Compound: NC(=O)CCC(N)C(=O)O (racemic) [DL-Glutamine]
- Difference [1, 12]: −0.07
- Cholesterol-free [1, 13]: 1.771
- Complete [1, 5]: 1.698
- Cholesterol-free media + simvastatin (0.04 μM) [2, 21]: 0.9407
- Complete Media [2, 22]: 0.6307
- Difference [2, 20]: −0.31

Compound: CC1CCC(C(C)C)C(O)C1 (racemic) [DL-Menthol]
- Cholesterol-free [1, 7]: 1.299
- Complete ([1]; NCI-H292 cells, complete media): 0.8907
- Difference [1, 3]: −0.41
- Cholesterol-free media + simvastatin (0.04 μM) [2, 4]: 0.8922
- Complete Media [2, 5]: 1.05
- Difference [2, 6]: 0.16

Compound: C[S+](C)CCC(N)C(=O)O.[Cl-] (racemic) [DL-Methionine methylsulfonium (chloride)]
- Difference [1, 12]: −0.16
- Cholesterol-free [1, 13]: 1.102
- Complete [1, 5]: 0.9454
- Cholesterol-free media + simvastatin (0.04 μM) [2, 21]: 1.182
- Complete Media [2, 22]: 0.8884
- Difference [2, 20]: −0.29

Compound: CSCCC(N)C(=O)O (racemic) [DL-Methionine]
- Difference [1, 16]: −0.06
- Cholesterol-free [1, 17]: 1.381
- Complete [1, 18]: 1.325
- Cholesterol-free media + simvastatin (0.04 μM) [2, 14]: 0.9866
- Complete Media [2, 15]: 1.007
- Difference [2, 6]: 0.02

Compound: Cl.NCC(O)c1ccc(O)c(O)c1 (racemic) [DL-Norepinephrine (hydrochloride)]
- Cholesterol-free [1, 17]: 1.105
- Complete [1, 18]: 1.652
- Difference [1, 19]: 0.55
- Cholesterol-free media + simvastatin (0.04 μM) [2, 21]: 0.9652
- Complete Media [2, 22]: 0.176
- Difference [2, 20]: −0.79

Compound: CC(C)(CO)C(O)C(=O)NCCCO (racemic) [DL-Panthenol]
- Difference [1, 9]: −0.82
- Cholesterol-free [1, 10]: 1.816
- Complete [1, 11]: 0.9995
- Cholesterol-free media + simvastatin (0.04 μM) [2, 4]: 1.177
- Complete Media [2, 5]: 1.049
- Difference [2, 20]: −0.13

Compound: O=C[C@H](O)[C@@H](O)[C@H](O)CO (racemic) [DL-Xylose]
- Difference [1, 9]: −0.70
- Cholesterol-free [1, 10]: 1.5
- Complete [1, 11]: 0.7993
- Cholesterol-free media + simvastatin (0.04 μM) [2, 4]: 0.8322
- Complete Media [2, 5]: 1.203
- Difference [2, 6]: 0.37

Compound: Cc1c(C)c2c(c(C)c1O)CCC(C)(CCCC(C)CCCC(C)CCCC(C)C)O2 (racemic) [DL-alpha-Tocopherol]
- Cholesterol-free [1, 17]: 0.7949
- Complete [1, 18]: 1.459
- Difference [1, 19]: 0.66
- Cholesterol-free media + simvastatin (0.04 μM) [2, 4]: 1.155
- Complete Media [2, 5]: 1.072
- Difference [2, 20]: −0.08

Compound: C=CC(=O)N1CCC[C@@H](n2nc(-c3ccc(Oc4ccccc4)cc3)c3c(N)ncnc32)C1 (racemic) [Ibrutinib (Racemate)]
- Cholesterol-free [1, 7]: 1.242
- Complete ([1]; NCI-H292 cells, complete media): 0.9233
- Difference [1, 3]: −0.32
- Cholesterol-free media + simvastatin (0.04 μM) [2, 23]: 0.346
- Complete Media [2, 24]: 0.2858
- Difference [2, 25]: −0.06

Compound: CN1[C@H]2C[C@H](OC(=O)[C@H](CO)c3ccccc3)C[C@@H]1[C@@H](O)C2 (racemic) [Racanisodamine]
- Difference [1, 26]: −0.15
- Cholesterol-free [1, 13]: 1.184
- Complete [1, 5]: 1.034
- Cholesterol-free media + simvastatin (0.04 μM) [2, 23]: 0.9483
- Complete Media [2, 24]: 0.9207
- Difference ([2]; complete media minus cholesterol-free media + simvastatin (0.04 μM), […]): −0.03

Compound: COC1=CC(=O)OC(/C=C/c2ccccc2)C1 (single isomer, unassigned; (+)) [(+)-Kavain]
- Difference [1, 26]: −0.08
- Cholesterol-free [1, 13]: 1.138
- Complete [1, 5]: 1.054
- Cholesterol-free media + simvastatin (0.04 μM) ([2]; NCI-H292 cells, cholesterol-free media with simvastatin 0.04 μM, […]): 1.009
- Complete Media ([2]; NCI-H292 cells, complete media, […]): 1.093
- Difference [2, 8]: 0.08

Compound: CC(C)(C)NCC(O)COc1ccccc1C1CCCC1 (single isomer, unassigned; (+)) [(+)-Penbutolol]
- Cholesterol-free [1, 7]: 1.349
- Complete ([1]; NCI-H292 cells, complete media): 1.014
- Difference [1, 3]: −0.33
- Cholesterol-free media + simvastatin (0.04 μM) [2, 27]: 1.153
- Complete Media [2, 28]: 0.9518
- Difference [2, 20]: −0.20

Compound: CC1CCC(C(C)C)C(O)C1 (single isomer, unassigned; (-)) [(−)-Menthol]
- Cholesterol-free [1, 7]: 1.434
- Complete ([1]; NCI-H292 cells, complete media): 1.115
- Difference [1, 3]: −0.32
- Cholesterol-free media + simvastatin (0.04 μM) [2, 21]: 1.223
- Complete Media [2, 22]: 0.8866
- Difference [2, 20]: −0.34

Compound: CC(=C(CCO)SSCC1CCCO1)N(C=O)Cc1cnc(C)nc1N (stereo in doubt) [Fursultiamine]
- Cholesterol-free [1]: 1.191
- Complete [1]: 1.162
- Difference [1]: −0.03
- Cholesterol-free media + simvastatin (0.04 μM) [2]: 1.842
- Complete Media [2]: 1.268
- Difference [2]: −0.57

Compound: CC(=C(CCOC(=O)C(C)C)SSC(CCOC(=O)C(C)C)=C(C)N(C=O)Cc1cnc(C)nc1N)N(C=O)Cc1cnc(C)nc1N (stereo in doubt) [Sulbutiamine]
- Cholesterol-free [1, 17]: 1.257
- Complete [1, 18]: 1.438
- Difference [1, 19]: 0.18
- Cholesterol-free media + simvastatin (0.04 μM) [2, 14]: 0.8359
- Complete Media [2, 15]: 0.9183
- Difference [2, 6]: 0.08

Compound: O=C(O)c1ccccc1OP(=O)(O)O [2-(Phosphonooxy)benzoic acid]
- Difference [1, 9]: −0.51
- Cholesterol-free [1, 10]: 1.515
- Complete [1, 11]: 1.005
- Cholesterol-free media + simvastatin (0.04 μM) [2, 27]: 1.147
- Complete Media [2, 28]: 0.9779
- Difference [2, 20]: −0.17

Compound: CCOc1ccccc1C(N)=O [2-Ethoxybenzamide]
- Difference [1, 16]: −0.07
- Cholesterol-free [1, 17]: 1.024
- Complete [1, 18]: 0.9559
- Cholesterol-free media + simvastatin (0.04 μM) [2, 4]: 1.119
- Complete Media [2, 5]: 0.9754
- Difference [2, 20]: −0.14

Compound: NCc1ccc(C(=O)O)cc1 [4-(Aminomethyl)benzoic acid]
- Difference [1, 9]: −0.68
- Cholesterol-free [1, 10]: 1.961
- Complete [1, 11]: 1.286
- Cholesterol-free media + simvastatin (0.04 μM) [2, 23]: 1.68
- Complete Media [2, 24]: 1.637
- Difference [2, 25]: −0.04

Reference: patent US20250144067A1, “PERSONALIZED STARVATION THERAPY FOR CANCER” (Faeth Therapeutics, Inc., priority 2021, published 2025)
